The values that follow come from US7279183B2, “Method of reducing thrombosis and complications after arterial angioplasty using stent coated with magnesium-based compound” (Cedars-Sinai Medical Center, priority 2001, dated 2007).

Like-named read-outs stand apart in the source and are kept apart here.

One data set deals with platelet aggregation. Kind of data set: whole blood aggregometry, agonist-induced platelet aggregation. It counts as cell-based, swine. The settings on record: for platelet aggregation: 3 pigs. On the procedure: Thirty minutes after administration of the heparin (in the heparin alone) or magnesium, 3 mL venous blood was collected in a siliconized test tube containing 0.3 mL of 0.129 molar sodium citrate or sodium heparin (Becton Dickinson Vacutainer System). Whole blood aggregometry (Chronolog Corp.) was used to measure collagen (2 and 5 μg/mL)- and Adenosine diphosphate (2.5 μM)-induced platelet aggregation. Aggregation was expressed as maximal increase in electrical impedance measured in ohms at 6 minutes after the addition of agonist.

Data set [1] is described as follows: bleeding time from thigh incision. It counts as in vivo, swine. The method, then: Bleeding time is defined as the time from the creation of an incision to the point where bleeding from the incision ceases. In the experiment according to one embodiment of the present invention discussed herein, bleeding time was measured from an incision on the ventral surface of the thigh with a No. 11 surgical knife.

Data set [2] is described as follows: activated clotting time (ACT), Hemochron 400. It counts as in vivo, swine. The method, then: In the experiment discussed herein that was conducted according to one embodiment of the present invention, ACT was determined using a Hemochron 400 (International Technidyne Corp.) machine in standard fashion. See Makkar R R, Litvack F, Eigler N L, Nakamura M, Ivey P A, Forrester J S, Shah P K, Jordan R E, Kaul S, Effects of GP IIb/IIIa Receptor Monoclonal Antibody (7E3), Heparin, and Aspirin in an Ex Vivo Canine Arteriovenous Shunt Model of Stent Thrombosis, Circulation, 1997; 95(4): 1015-1021; and Makkar R R, Eigler N L, Kaul S, Nakamura M, Forrester J S, Herbert J-M, Litvack F I, Effects of clopidogrel, aspirin and combined therapy in a porcine ex vivo model of high-shear induced stent thrombosis, Eur Heart J, 1998; 19:1538-1546.

A short description of data set [3]: serum magnesium level, magon dye method. The following applies: in words, FIG. 5. It counts as in vivo, swine. On the procedure: Serum magnesium levels for the test subjects were measured spectrophotometrically using the magon dye method. See Elm R J, Determination of serum magnesium concentration by clinical laboratories, […], 1991-92:60-6.
For data set [4] the following is noted: magnesium sulfate intravenously, ANOVA. On the procedure: The graph in FIG. 3 was generated by taking between 10 and 14 observations at each time point. The MABP was measured in millimeters of mercury (mmHg). The heart rate was measured in beats per minute (BPM).
How the values of data set [5] were obtained:
(§1) Twenty one low-risk patients undergoing non-acute percutaneous coronary intervention with stent implantation received a two gm bolus of intravenous MgSO4 followed by a 1.5 gm/hour infusion for four hours and a 1 gm/hour infusion for the next eight hours. […] The preset primary endpoints for this experiment were: acute thrombotic occlusion and need for platelet IIb/IIIa inhibitors bailout, death, myocardial infarction, recurrent ischemia and need for urgent revascularization at 48 hours and 30 days. The secondary safety endpoints included hypotension, bradycardia, bleeding complications and heart block within the first 24 hours.

Another data set has as its system in-stent thrombosis. The method, then:
as §1

A further data set relates to platelets. The following applies: cited from earlier work.
Data set [6] can be described thus: complete blood cell count. The following applies: data not shown.
Data set [7] deals with acute platelet-dependent stent thrombosis. Kind of data set: ex-vivo porcine arteriovenous shunt model of high-shear stent thrombosis (thrombus weight). It counts as in vivo, swine.
Method: An experiment according to one embodiment of the present invention was performed using an ex-vivo model that primarily examines shear-mediated, platelet-dependent thrombus formation. This experiment allowed for the evaluation of the effects of magnesium, and the time-dependent nature thereof, on acute platelet-dependent stent thrombosis in an ex-vivo porcine arteriovenous shunt model of high-shear blood flow.
(§2) Experiments were performed in 10 swine weighing 25 to 30 kg. […] The right carotid artery and jugular vein were isolated and cannulated with 8F sheaths to establish an extracorporeal circuit as described previously. […] Arterial blood gases and pH were monitored periodically and maintained at normal levels by adjustment of the ventilation rate and tidal volume. Invasive arterial pressure measurement, oxygen saturation, ECG, and rectal temperature were monitored continuously. A thermostatically controlled blanket was used to maintain temperature at 37° C. Venous blood was collected for baseline platelet aggregation, complete blood cell count, and activated clotting time (ACT) measurements.
All animals received heparin at a dose of 10 U/kg as a bolus before the study to prevent thrombotic occlusion of catheters and tubing. […]
For data set [8] the following is noted: in vivo.
Method: as §2
All animals received heparin at a dose of 10 U/kg as a bolus before the study to prevent thrombotic occlusion of catheters and tubing. […] At the conclusion of the experiment, blood was collected for complete blood cell counts, the carotid artery and jugular vein were ligated, and the animals were allowed to recover from anesthesia before being returned to the vivarium. Each animal was studied twice with a minimum interval of 2 weeks between each experiment.
At the end of each treatment, control stents were perfused to ensure return of stent thrombus weights towards baseline pre-treatment values. Effects on thrombus weight (TW), whole-blood platelet aggregation (PA), bleeding time (BT), activated clotting time (ACT), serum magnesium level, and complete blood count (CBC) were quantified at various time points as shown in the protocol schematic. Mean arterial blood pressure (MABP) and heart rate (HR) were monitored and recorded throughout the protocol.
The test system of data set [9] is acute platelet-dependent stent thrombosis. The settings on record: 10 U/kg bolus, average of 200 U per swine; cited from earlier work.
The mark [10] stands for this setting: in words, beyond the heparin effect.

Turning to `O=S(=O)([O-])[O-].[Mg+2]` [Mg, magnesium sulfate], the “effect on platelet aggregation” value in the data set with platelet aggregation (ADP (2.5 μM), data not shown) was “no effect”; in the data set on platelet aggregation (collagen 2 μg/ml, data not shown), “no effect”; in the data set on platelet aggregation (in words, listed as Magnesium), “no significant effects”; in the data set on platelet aggregation (in words, listed as magnesium), “no significant effect”. The same compound showed a whole-blood platelet aggregation with platelet aggregation (FIG. 5, 5 μg/mL collagen, with addition of magnesium, from 25±3, not significant) of 21±5 ohms. Also, the “platelet aggregation (maximal increase in electrical impedance)” value was 22±3 ohms in the data set with platelet aggregation (Mg-late alone, 6 minutes after agonist, baseline 25±3); 21.0±5 ohms in the data set with platelet aggregation (Mg-treated animals, >40 minutes post-bolus (Mg-late)); 23±4 ohms with platelet aggregation (Mg-treated animals, within 20 minutes post-bolus (Mg-early)). Further, the platelet aggregation in the data set with platelet aggregation (citrate-stabilized blood, post-Mg (25±3 pre)) is given as 22±3 ohms; in the data set on platelet aggregation (heparin-stabilized samples, post-Mg (26±2 pre)) it was 27±2 ohms. Further, the “effect on bleeding time” value in [1] (setting [10]) is recorded as “no significant effects”. In addition, the “effect on activated clotting time (ACT)” value in data set [2] (setting [10]) is on record as “no significant effects”. In addition, in data set [3], the “serum magnesium levels compared to control” value is listed as “higher”. The “effect on heart rate” value in [4] (listed as Magnesium) is “no significant effects”; in data set [4] (listed as magnesium), “no statistically significant effects”; in [5] (patients, IV MgSO4), “did not have a significant effect”. Besides, the “effect on mean arterial blood pressure (MABP)” value is reported as “no significant effects” in data set [4] (listed as Magnesium) and “no statistically significant effects” in [4] (listed as magnesium). Besides, the “effect on mean arterial blood pressure” value in [5] (patients, IV MgSO4) is given as “did not have a significant effect”. Also, the serum magnesium level in data set [5] (post-bolus (2 gm IV MgSO4), baseline 2.1±0.3, P<0.0001) came to 3.2 ± 0.3 mg/dL; in [5] (post-infusion (total 16 gm)) it was 3.5 ± 0.8 mg/dL. Further, the “GP IIb/IIIa inhibitors bailout” value in the data set with in-stent thrombosis (21 patients) was “no case”. The death result in the data set on in-stent thrombosis (21 patients) was “not seen”. For the same compound, the myocardial infarction result in the data set on in-stent thrombosis (21 patients) was “not seen”. Further, the urgent revascularization result in the data set with in-stent thrombosis (21 patients) was “not seen”. In the data set with in-stent thrombosis (all cases, 21 patients), the “coronary artery blood flow at end of intervention” value is recorded as “normal coronary artery blood flow (TIMI 3 flow)”. The “hemostatic or hemodynamic complications” value in the data set with in-stent thrombosis (human subjects) is on record as “without any hemostatic or hemodynamic complications”. In the data set with platelets, the “concentration at which anti-adhesive effect may occur” value is recorded as less than 4 mEq/L. In addition, the “concentration at which anti-aggregatory effect may occur” value in the data set on platelets is reported as more than 5 mEq/L. Further, the effect on hematocrit result in data set [6] was “no significant effects”. For the same compound, the “effect on platelet counts” value in data set [6] is on record as “no significant effects”. In addition, the “effect on white blood cell counts” value in [6] is given as “no significant effects”.
Turning to heparin, in data set [7] (given alone, magnesium both early and late groups), the “effect on thrombus formation (FIG. 2(a))” value is given as “reduce thrombus formation slightly”. The “reduction of stent thrombus weight (TW)” value in [7] (heparin alone, 50 U/kg IV bolus then 25-50 U/kg/hr, versus pre-treatment, mean±SD) is given as 48±16%. In addition, the “platelet aggregation (maximal increase in electrical impedance)” value with platelet aggregation (heparin alone, 6 minutes after agonist, baseline 25±3) came to 24±6 ohms. In data set [1] (in vivo), this compound showed a bleeding time of 5.3±0.6. Besides, in [2] (prolonged from 109±8 seconds, P<0.01), the ACT turned out to be 185 ± 36 s. In [8], the effect on hematocrit result is reported as “no significant effects”, the “effect on platelet counts” value was “no significant effects” and the “effect on white blood cell counts” value is “no significant effects”. Moreover, the “effect on thrombus formation at high-shear conditions” value in data set [9] is given as “negligible effects”.
